Measured values published in PMC6199744, “Development of Chemical Proteomics for the Folateome and Analysis of the Kinetoplastid Folateome” (ACS Infectious Diseases, 2018).
Read-outs that look alike come from different tables or passages of the source.

What was measured:
Assay type in all cases: binding
[1] = target: T1, HeLa cell extract proteins (Homo sapiens, UniProt Q96JI7)
T1 construct: endogenous in cells; host or cells: HeLa cell extract

[2] = target: T2, HeLa cell extract proteins (Homo sapiens, UniProt O94855)
T2 construct: endogenous in cells; host or cells: HeLa cell extract
T2 sequence (O94855 1-1032): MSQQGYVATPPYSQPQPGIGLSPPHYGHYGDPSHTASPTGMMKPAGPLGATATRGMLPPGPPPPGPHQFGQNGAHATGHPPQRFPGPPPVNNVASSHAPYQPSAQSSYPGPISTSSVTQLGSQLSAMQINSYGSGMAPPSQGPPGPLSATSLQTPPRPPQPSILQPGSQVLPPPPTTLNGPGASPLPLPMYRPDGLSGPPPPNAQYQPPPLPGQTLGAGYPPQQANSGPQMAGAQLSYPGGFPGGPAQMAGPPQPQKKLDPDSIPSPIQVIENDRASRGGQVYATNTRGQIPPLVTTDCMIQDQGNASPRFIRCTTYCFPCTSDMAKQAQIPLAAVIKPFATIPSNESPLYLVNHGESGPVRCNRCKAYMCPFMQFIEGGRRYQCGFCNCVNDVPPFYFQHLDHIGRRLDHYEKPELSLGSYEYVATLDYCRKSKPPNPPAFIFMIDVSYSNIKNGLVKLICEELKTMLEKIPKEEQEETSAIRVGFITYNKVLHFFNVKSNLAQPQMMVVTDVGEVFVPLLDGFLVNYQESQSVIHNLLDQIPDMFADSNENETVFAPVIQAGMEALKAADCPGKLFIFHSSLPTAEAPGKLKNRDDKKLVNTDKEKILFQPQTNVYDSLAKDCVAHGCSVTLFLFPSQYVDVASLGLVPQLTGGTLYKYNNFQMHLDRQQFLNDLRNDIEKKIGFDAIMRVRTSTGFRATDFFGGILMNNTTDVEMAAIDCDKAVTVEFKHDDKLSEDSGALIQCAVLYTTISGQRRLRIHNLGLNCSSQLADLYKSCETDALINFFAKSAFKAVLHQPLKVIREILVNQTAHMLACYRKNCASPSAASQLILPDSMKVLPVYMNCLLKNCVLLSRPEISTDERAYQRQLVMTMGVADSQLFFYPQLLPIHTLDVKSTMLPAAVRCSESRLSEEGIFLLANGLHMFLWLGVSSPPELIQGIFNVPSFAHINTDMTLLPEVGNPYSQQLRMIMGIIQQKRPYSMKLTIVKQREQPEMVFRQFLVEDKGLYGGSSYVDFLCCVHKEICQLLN

[3] = target: T3, HeLa cell extract proteins (Homo sapiens, UniProt P14373)
T3 construct: endogenous in cells; host or cells: HeLa cell extract
T3 sequence (P14373 1-513): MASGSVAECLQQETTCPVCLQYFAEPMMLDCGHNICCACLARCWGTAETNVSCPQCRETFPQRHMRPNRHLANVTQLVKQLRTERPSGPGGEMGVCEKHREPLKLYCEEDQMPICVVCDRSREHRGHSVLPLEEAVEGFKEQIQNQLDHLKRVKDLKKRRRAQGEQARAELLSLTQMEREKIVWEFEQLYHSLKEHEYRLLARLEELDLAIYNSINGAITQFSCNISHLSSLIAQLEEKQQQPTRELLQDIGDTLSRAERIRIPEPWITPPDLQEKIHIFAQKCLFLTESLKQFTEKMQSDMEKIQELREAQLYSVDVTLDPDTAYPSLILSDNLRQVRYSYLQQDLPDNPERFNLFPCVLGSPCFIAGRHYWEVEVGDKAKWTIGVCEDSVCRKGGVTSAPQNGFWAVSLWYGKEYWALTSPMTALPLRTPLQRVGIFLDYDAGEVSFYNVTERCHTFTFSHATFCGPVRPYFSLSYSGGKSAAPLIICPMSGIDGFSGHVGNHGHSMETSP

[4] = target: T4, HeLa cell extract proteins (Homo sapiens, UniProt P40938)
T4 construct: endogenous in cells; host or cells: HeLa cell extract
T4 sequence (P40938 whole entry): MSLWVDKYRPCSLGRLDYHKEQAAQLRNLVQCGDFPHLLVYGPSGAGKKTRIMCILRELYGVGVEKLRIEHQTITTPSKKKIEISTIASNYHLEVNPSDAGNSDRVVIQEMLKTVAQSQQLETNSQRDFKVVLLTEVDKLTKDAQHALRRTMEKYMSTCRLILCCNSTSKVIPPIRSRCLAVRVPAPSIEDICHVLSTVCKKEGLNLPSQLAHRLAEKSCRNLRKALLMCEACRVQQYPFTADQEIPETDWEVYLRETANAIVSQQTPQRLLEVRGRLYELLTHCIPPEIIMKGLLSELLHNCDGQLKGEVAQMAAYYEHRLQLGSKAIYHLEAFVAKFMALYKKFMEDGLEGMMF

[5] = target: T5, HeLa cell extract proteins (Homo sapiens, UniProt Q01469)
T5 construct: endogenous in cells; host or cells: HeLa cell extract
T5 sequence (Q01469 whole entry): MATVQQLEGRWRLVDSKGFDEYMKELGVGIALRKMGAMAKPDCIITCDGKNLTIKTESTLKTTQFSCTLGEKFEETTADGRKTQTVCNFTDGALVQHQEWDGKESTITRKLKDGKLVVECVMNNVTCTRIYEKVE

[6] = target: T6, HeLa cell extract proteins (Homo sapiens, UniProt Q9UPN7)
T6 construct: endogenous in cells; host or cells: HeLa cell extract
T6 sequence (Q9UPN7 1-881): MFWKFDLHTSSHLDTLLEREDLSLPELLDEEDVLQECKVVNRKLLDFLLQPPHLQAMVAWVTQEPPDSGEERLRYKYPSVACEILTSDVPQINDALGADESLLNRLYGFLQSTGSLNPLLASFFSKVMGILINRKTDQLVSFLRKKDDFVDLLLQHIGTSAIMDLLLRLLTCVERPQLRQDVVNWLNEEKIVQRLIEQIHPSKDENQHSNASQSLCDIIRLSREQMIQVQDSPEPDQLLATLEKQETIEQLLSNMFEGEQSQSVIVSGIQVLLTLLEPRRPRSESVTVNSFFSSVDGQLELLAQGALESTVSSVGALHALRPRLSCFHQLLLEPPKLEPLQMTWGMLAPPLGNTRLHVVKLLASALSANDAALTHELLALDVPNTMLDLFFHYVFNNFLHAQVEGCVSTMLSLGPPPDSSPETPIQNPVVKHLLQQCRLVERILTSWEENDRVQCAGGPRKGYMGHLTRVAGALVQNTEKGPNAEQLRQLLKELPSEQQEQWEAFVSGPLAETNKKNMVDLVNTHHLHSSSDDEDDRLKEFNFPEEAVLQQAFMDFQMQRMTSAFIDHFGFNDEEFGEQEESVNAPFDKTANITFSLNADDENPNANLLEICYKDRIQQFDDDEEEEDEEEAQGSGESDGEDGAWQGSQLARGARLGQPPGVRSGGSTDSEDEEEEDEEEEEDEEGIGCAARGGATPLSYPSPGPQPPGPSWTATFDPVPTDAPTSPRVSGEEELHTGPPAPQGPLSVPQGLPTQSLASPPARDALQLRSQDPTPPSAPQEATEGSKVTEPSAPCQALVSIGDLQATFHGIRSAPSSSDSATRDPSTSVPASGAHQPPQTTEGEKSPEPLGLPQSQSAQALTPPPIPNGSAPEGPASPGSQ

[7] = target: T7, HeLa cell extract proteins (Homo sapiens, UniProt Q9BPW8)
T7 construct: endogenous in cells; host or cells: HeLa cell extract
T7 sequence (Q9BPW8 36-284): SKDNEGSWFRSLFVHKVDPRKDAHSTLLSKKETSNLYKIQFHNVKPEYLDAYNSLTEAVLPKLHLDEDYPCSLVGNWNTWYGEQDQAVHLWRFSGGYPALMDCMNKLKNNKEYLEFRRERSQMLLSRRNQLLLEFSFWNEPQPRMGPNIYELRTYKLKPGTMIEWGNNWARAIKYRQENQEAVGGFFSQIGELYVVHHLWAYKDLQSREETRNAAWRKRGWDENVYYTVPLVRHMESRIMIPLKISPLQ

[8] = target: T8, HeLa cell extract proteins (Homo sapiens, UniProt O95817)
T8 construct: endogenous in cells; host or cells: HeLa cell extract
T8 sequence (O95817 whole entry): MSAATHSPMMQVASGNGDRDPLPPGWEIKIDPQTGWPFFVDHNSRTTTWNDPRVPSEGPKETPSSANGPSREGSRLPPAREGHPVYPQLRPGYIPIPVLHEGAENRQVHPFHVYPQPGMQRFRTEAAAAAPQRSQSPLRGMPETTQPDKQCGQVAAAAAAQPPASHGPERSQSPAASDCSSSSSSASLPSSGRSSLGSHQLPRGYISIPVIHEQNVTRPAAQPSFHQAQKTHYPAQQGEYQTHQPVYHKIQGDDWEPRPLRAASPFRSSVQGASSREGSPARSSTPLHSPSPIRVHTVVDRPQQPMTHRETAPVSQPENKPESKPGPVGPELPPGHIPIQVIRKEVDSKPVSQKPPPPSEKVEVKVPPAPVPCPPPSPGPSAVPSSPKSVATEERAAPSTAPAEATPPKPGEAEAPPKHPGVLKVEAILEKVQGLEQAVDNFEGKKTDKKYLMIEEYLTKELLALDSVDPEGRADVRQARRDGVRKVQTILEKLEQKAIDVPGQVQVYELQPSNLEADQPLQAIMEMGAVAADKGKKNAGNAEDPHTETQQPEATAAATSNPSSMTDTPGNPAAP

[9] = HeLa, protein SAPS1 (SAPS1 PROTEIN)

T1 sequence (Q96JI7 whole entry): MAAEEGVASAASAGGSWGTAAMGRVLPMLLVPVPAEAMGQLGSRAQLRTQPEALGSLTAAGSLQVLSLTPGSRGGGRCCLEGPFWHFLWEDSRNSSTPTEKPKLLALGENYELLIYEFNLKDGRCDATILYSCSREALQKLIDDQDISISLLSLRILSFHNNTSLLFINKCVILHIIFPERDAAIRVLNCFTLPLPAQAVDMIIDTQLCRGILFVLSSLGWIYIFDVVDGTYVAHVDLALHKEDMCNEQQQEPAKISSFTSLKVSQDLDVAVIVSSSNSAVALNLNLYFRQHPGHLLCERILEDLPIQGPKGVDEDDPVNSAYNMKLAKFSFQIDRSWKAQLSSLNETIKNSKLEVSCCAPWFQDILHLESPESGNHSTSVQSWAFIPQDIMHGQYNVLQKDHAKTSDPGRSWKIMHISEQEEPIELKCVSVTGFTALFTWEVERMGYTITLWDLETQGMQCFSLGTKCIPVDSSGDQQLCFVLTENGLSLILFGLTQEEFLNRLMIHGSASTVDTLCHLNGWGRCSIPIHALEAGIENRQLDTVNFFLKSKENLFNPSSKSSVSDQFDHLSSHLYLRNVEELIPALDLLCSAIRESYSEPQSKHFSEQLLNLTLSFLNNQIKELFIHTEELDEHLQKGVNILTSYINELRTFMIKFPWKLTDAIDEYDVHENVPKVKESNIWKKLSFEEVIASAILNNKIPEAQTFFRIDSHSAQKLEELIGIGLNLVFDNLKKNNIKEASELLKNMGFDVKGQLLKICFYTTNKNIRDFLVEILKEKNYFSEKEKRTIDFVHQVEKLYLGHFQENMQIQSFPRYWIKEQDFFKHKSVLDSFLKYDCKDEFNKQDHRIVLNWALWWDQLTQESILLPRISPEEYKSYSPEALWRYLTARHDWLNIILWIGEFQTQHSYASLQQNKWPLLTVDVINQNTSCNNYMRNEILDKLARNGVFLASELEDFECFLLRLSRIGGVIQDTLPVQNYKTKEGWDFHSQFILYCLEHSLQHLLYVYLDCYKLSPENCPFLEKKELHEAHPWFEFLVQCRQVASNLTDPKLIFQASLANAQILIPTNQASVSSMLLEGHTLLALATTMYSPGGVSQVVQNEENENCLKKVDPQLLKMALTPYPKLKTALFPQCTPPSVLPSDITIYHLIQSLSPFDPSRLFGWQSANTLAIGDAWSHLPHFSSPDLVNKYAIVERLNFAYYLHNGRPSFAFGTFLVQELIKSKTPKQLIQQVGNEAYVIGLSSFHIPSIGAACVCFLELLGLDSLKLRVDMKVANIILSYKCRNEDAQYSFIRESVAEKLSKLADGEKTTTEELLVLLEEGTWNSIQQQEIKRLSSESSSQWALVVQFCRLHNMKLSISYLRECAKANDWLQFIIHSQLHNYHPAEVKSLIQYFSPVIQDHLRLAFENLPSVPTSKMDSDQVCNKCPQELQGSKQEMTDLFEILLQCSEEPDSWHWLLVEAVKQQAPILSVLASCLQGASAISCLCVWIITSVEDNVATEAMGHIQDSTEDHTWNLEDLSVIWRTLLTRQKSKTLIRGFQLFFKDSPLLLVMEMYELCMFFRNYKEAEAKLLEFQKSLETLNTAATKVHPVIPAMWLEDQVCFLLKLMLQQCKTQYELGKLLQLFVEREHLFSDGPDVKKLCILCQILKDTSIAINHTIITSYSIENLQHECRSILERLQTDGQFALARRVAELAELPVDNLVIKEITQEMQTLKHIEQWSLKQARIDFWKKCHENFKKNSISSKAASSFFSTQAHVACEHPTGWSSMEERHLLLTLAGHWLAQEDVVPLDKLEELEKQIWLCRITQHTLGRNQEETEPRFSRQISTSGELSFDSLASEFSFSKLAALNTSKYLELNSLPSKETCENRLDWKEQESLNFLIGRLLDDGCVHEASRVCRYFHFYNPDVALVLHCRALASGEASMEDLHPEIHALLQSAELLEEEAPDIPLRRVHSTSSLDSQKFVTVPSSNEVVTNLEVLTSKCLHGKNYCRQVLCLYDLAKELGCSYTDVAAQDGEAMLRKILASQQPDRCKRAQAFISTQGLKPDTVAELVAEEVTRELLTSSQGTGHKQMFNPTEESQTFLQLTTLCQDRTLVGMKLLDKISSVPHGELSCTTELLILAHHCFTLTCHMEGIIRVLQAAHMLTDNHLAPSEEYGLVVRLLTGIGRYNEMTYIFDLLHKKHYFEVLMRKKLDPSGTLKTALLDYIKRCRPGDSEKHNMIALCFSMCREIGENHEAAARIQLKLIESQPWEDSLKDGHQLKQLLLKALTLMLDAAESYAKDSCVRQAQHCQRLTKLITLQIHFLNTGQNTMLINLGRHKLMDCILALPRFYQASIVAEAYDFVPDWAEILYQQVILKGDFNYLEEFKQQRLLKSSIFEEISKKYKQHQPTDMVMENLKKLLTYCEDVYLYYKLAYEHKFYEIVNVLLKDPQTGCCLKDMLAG

**Q.** With `Nc1nc2[nH]cc(CCc3ccc(C(=O)N[C@@H](CCC(=O)O)C(=O)O)cc3)c2c(=O)[nH]1` [PTX, pemetrexed] as the compound, how does the “fold changes relative to vehicle control” value [1] read?
**A.** 1.38

**Q.** What about the “fold changes relative to vehicle control” value [2] of the same compound?
**A.** 1.09

**Q.** And the “fold changes relative to vehicle control” value [3]?
**A.** 0.87

**Q.** And the “fold changes relative to vehicle control” value [4]?
**A.** 1.01

**Q.** And the “fold changes relative to vehicle control” value [5]?
**A.** 1.45

**Q.** What about the “fold changes relative to vehicle control” value [6] of the same compound?
**A.** 1.49

**Q.** What about the “fold changes relative to vehicle control” value [7] of the same compound?
**A.** 1.03

**Q.** And the “fold changes relative to vehicle control” value [8]?
**A.** 0.96

**Q.** With `Nc1nc2c(c(=O)[nH]1)N(C=O)C(CNc1ccc(C(=O)N[C@@H](CCC(=O)O)C(=O)O)cc1)CN2` (some centres unmarked) [LEU, leucovorin] as the compound, how does the “fold changes relative to vehicle control” value ([1]; protein SPG11, HeLa) read?
**A.** 1.3

**Q.** What about the “fold changes relative to vehicle control” value ([2]; HeLa, captured protein SEC24D) of the same compound?
**A.** 1.12

**Q.** And the “fold changes relative to vehicle control” value ([3]; HeLa, captured protein TRIM27)?
**A.** 0.97

**Q.** And the “fold changes relative to vehicle control” value ([4]; HeLa, protein RFC3)?
**A.** 0.99

**Q.** What about the “fold changes relative to vehicle control” value ([5]; protein FABP5, HeLa) of the same compound?
**A.** 1

**Q.** And the “fold changes relative to vehicle control” value [6, 9]?
**A.** 1.01

**Q.** And the “fold changes relative to vehicle control” value ([7]; HeLa, protein NIPSNAP1)?
**A.** 1.02

**Q.** What about the “fold changes relative to vehicle control” value ([8]; HeLa, protein BAG3) of the same compound?
**A.** 0.91

**Q.** How did the “fold changes relative to vehicle control” value ([1]; protein SPG11, HeLa) turn out when `NCCOCCOCC(=O)Nc1nc2ncc(CNc3ccc(C(=O)NC(CCC(=O)O)C(=O)O)cc3)nc2c(=O)[nH]1` (centres unmarked) [compound 6] was run?
**A.** 1.86

**Q.** And the “fold changes relative to vehicle control” value ([2]; HeLa, captured protein SEC24D)?
**A.** 1.15

**Q.** And the “fold changes relative to vehicle control” value ([3]; HeLa, captured protein TRIM27)?
**A.** 0.89

**Q.** What about the “fold changes relative to vehicle control” value ([4]; HeLa, protein RFC3) of the same compound?
**A.** 1.14

**Q.** What about the “fold changes relative to vehicle control” value ([5]; protein FABP5, HeLa) of the same compound?
**A.** 1.3

**Q.** And the “fold changes relative to vehicle control” value [6, 9]?
**A.** 1.29

**Q.** What about the “fold changes relative to vehicle control” value ([7]; HeLa, protein NIPSNAP1) of the same compound?
**A.** 1.04

**Q.** What about the “fold changes relative to vehicle control” value ([8]; HeLa, protein BAG3) of the same compound?
**A.** 1.17

**Q.** Which “fold changes relative to vehicle control” value ([1]; protein SPG11, HeLa) does the source give for `NCCCNc1ccc(C(=O)NC(CCC(=O)O)C(=O)O)cc1` (centres unmarked) [compound 7] here?
**A.** 1.54

**Q.** And the “fold changes relative to vehicle control” value ([2]; HeLa, captured protein SEC24D)?
**A.** 1.04

**Q.** And the “fold changes relative to vehicle control” value ([3]; HeLa, captured protein TRIM27)?
**A.** 1.01

**Q.** What about the “fold changes relative to vehicle control” value ([4]; HeLa, protein RFC3) of the same compound?
**A.** 1.16

**Q.** And the “fold changes relative to vehicle control” value ([5]; protein FABP5, HeLa)?
**A.** 1.1

**Q.** And the “fold changes relative to vehicle control” value [6, 9]?
**A.** 1.32

**Q.** What about the “fold changes relative to vehicle control” value ([7]; HeLa, protein NIPSNAP1) of the same compound?
**A.** 1.03

**Q.** And the “fold changes relative to vehicle control” value ([8]; HeLa, protein BAG3)?
**A.** 0.89
